From patent US11759462B2, “Spirocyclic compounds as tryptophan hydroxylase inhibitors” (priority 2013, dated 2023)

What follows are compounds tested against T1, Recombinant human TPH1 (MBP tagged) (Homo sapiens, UniProt P17752) (assay: TPH1 in vitro inhibition assay (kinetic fluorescence)). Conditions: TPH1 Range (TPH1 inhibition IC50).
T1 construct: cloning full length human TPH1 cDNA in to a bacterial pMAL-c5E expression vector; made in house; host or cells: E. coli BL21 (DE3)
T1 sequence (P17752 1-444): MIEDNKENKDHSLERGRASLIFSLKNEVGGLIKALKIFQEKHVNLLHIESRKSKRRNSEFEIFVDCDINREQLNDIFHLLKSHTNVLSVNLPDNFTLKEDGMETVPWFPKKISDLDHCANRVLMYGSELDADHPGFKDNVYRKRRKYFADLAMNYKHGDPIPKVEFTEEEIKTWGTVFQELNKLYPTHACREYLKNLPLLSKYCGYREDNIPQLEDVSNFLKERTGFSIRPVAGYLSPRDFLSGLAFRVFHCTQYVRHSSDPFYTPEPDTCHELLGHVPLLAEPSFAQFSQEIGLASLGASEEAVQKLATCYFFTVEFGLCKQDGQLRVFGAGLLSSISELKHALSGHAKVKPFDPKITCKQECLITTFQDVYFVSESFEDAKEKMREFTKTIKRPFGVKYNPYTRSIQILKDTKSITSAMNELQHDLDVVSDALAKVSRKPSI
Assay type: biochemical
Procedure, shortened: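 Final mix: 15 nM MBP-TPH1, 30 μM Trp, 36 μM 6-methyltetrahydropterin, 25 μM ferrous ammonium sulfate, 50 mM MES pH 7.1, 1% DMSO, room temperature.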
`Nc1nc(O[C@H](c2ccc(Cl)cc2-c2ccccc2)C(F)(F)F)cc(N2CCC3(CC2)CN[C@@H](C(=O)O)C3)n1` [Example 54h, (R)-8-(2-amino-6-((R)-1-(5-chloro-[1,1′-biphenyl]-2-yl)-2,2,2-trifluoroethoxy)pyrimidin-4-yl)-2,8-diazaspiro[4.5]decane-3-carboxylic acid] gave an IC50 of 3000 to 10000 nM.
`N#Cc1cccc(-c2cc(Cl)ccc2[C@@H](Oc2cc(N3CCC4(CC3)CN[C@H](C(=O)O)C4)nc(N)n2)C(F)(F)F)c1` [Example 34x, (S)-8-(2-amino-6-((R)-1-(5-chloro-3′-cyano-[1,1′-biphenyl]-2-yl)-2,2,2-trifluoroethoxy)pyrimidin-4-yl)-2,8-diazaspiro[4.5]decane-3-carboxylic acid] gave an IC50 of under 50 nM.
For `Nc1nc(O[C@H](c2ccc(Cl)cc2-c2ccc(F)c(F)c2)C(F)(F)F)cc(N2CCC3(CC2)CN[C@H](C(=O)O)C3)n1` [Example 34aw, (S)-8-(2-amino-6-((R)-1-(5-chloro-3′,4′-difluoro-[1,1′-biphenyl]-2-yl)-2,2,2-trifluoroethoxy)pyrimidin-4-yl)-2,8-diazaspiro[4.5]decane-3-carboxylic acid], the IC50 was under 50 nM.

Same assay, conditions: read-out: TPH1 Range (TPH1 inhibition IC50)
For `Cc1ccn(-c2cc(-c3ccc(OCC(C)C)cc3)ccc2[C@@H](Oc2cc(N3CCC4(CC3)CN[C@H](C(=O)O)C4)nc(N)n2)C(F)(F)F)n1` [Example 1cl, (S)-8-(2-amino-6-((R)-2,2,2-trifluoro-1-(4′-isobutoxy-3-(3-methyl-1H-pyrazol-1-yl)-[1,1′-biphenyl]-4-yl)ethoxy)pyrimidin-4-yl)-2,8-diazaspiro[4.5]decane-3-carboxylic acid], the IC50 was under 50 nM.
In the case of `CCCS(=O)(=O)c1cccc(-c2cc(Cl)ccc2[C@@H](Oc2cc(N3CCC4(CC3)CN[C@H](C(=O)O)C4)nc(N)n2)C(F)(F)F)c1` [Example 34k, (S)-8-(2-amino-6-((R)-1-(5-chloro-3′-(propylsulfonyl)-[1,1′-biphenyl]-2-yl)-2,2,2-trifluoroethoxy)pyrimidin-4-yl)-2,8-diazaspiro[4.5]decane-3-carboxylic acid], the IC50 is reported as 50 to 300 nM.
Work on `Nc1nc(OCC2C3CC4CC(C3)CC2C4)cc(N2CCC3(CC2)CN[C@H](C(=O)O)C3)n1` (stereo partly drawn) [Example 38, (S)-8-(6-((1r,3r,5S,7S)-adamantan-2-ylmethoxy)-2-aminopyrimidin-4-yl)-2,8-diazaspiro[4.5]decane-3-carboxylic acid] yielded an IC50 of 300 to 3000 nM.
For `Cc1ccn(-c2cc(-c3ccc(S(C)(=O)=O)cc3)ccc2[C@@H](Oc2cc(N3CCC4(CC3)CN[C@H](C(=O)O)C4)nc(N)n2)C(F)(F)F)n1` [Example 1cc, (S)-8-(2-amino-6-((R)-2,2,2-trifluoro-1-(3-(3-methyl-1H-pyrazol-1-yl)-4′-(methylsulfonyl)-[1,1′-biphenyl]-4-yl)ethoxy)pyrimidin-4-yl)-2,8-diazaspiro[4.5]decane-3-carboxylic acid], the IC50 was under 50 nM.
For `NCc1cccc(-c2cc(Cl)ccc2[C@@H](Oc2cc(N3CCC4(CC3)CN[C@H](C(=O)O)C4)nc(N)n2)C(F)(F)F)c1` [Example 34z, (S)-8-(2-amino-6-((R)-1-(3′-(aminomethyl)-5-chloro-[1,1′-biphenyl]-2-yl)-2,2,2-trifluoroethoxy)pyrimidin-4-yl)-2,8-diazaspiro[4.5]decane-3-carboxylic acid], the IC50 was under 50 nM.
`Cc1ccn(-c2cc(-c3ccc4c(c3)CCCO4)ccc2[C@@H](Oc2cc(N3CCC4(CC3)CN[C@H](C(=O)O)C4)nc(N)n2)C(F)(F)F)n1` [Example 1co, (S)-8-(2-amino-6-((R)-1-(4-(chroman-6-yl)-2-(3-methyl-1H-pyrazol-1-yl)phenyl)-2,2,2-trifluoroethoxy)pyrimidin-4-yl)-2,8-diazaspiro[4.5]decane-3-carboxylic acid] was tested, and the IC50 was under 50 nM.
Compound `CCOc1cc(-c2cc(Cl)ccc2[C@@H](Oc2cc(N3CCC4(CC3)CN[C@H](C(=O)O)C4)nc(N)n2)C(F)(F)F)ccc1F` [Example 34bp, (S)-8-(2-amino-6-((R)-1-(5-chloro-3′-ethoxy-4′-fluoro-[1,1′-biphenyl]-2-yl)-2,2,2-trifluoroethoxy)pyrimidin-4-yl)-2,8-diazaspiro[4.5]decane-3-carboxylic acid] has an IC50 of under 50 nM.
Compound `C=CC(=O)NCc1cccc(-c2cc(Cl)ccc2[C@@H](Oc2cc(N3CCC4(CC3)CN[C@H](C(=O)O)C4)nc(N)n2)C(F)(F)F)c1` [Example 34aa, (S)-8-(6-((R)-1-(3′-(acrylamidomethyl)-5-chloro-[1,1′-biphenyl]-2-yl)-2,2,2-trifluoroethoxy)-2-aminopyrimidin-4-yl)-2,8-diazaspiro[4.5]decane-3-carboxylic acid] has an IC50 of under 50 nM.
Compound `COc1ccc(-c2ccc([C@@H](Oc3cc(N4CCC5(CC4)CN[C@H](C(=O)O)C5)nc(N)n3)C(F)(F)F)cc2)cc1OC` [Example 55q, (S)-8-(2-amino-6-((R)-1-(3′,4′-dimethoxy-[1,1′-biphenyl]-4-yl)-2,2,2-trifluoroethoxy)pyrimidin-4-yl)-2,8-diazaspiro[4.5]decane-3-carboxylic acid] has an IC50 of under 50 nM.
`Nc1nc(O[C@H](c2ccc(Cl)cc2-c2cc(Cl)cc(Cl)c2)C(F)(F)F)cc(N2CCC3(CC2)CN[C@H](C(=O)O)C3)n1` [Example 34bj, (S)-8-(2-amino-6-((R)-2,2,2-trifluoro-1-(3′,5,5′-trichloro-[1,1′-biphenyl]-2-yl)ethoxy)pyrimidin-4-yl)-2,8-diazaspiro[4.5]decane-3-carboxylic acid] showed an IC50 of under 50 nM.
For `CC/C=C/c1ccc(-n2ccc(C)n2)c([C@@H](Oc2cc(N3CCC4(CC3)CN[C@H](C(=O)O)C4)nc(N)n2)C(F)(F)F)c1` [Example 19c, (S)-8-(2-amino-6-((R)-1-(5-((E)-but-1-en-1-yl)-2-(3-methyl-1H-pyrazol-1-yl)phenyl)-2,2,2-trifluoroethoxy)pyrimidin-4-yl)-2,8-diazaspiro[4.5]decane-3-carboxylic acid], the IC50 was under 50 nM.
With `COc1ccccc1-c1ccc([C@@H](Oc2cc(N3CCC4(CC3)CN[C@H](C(=O)O)C4)nc(N)n2)C(F)(F)F)cc1` [Example 55ar, (S)-8-(2-amino-6-((R)-2,2,2-trifluoro-1-(2′-methoxy-[1,1′-biphenyl]-4-yl)ethoxy)pyrimidin-4-yl)-2,8-diazaspiro[4.5]decane-3-carboxylic acid] the IC50 was 50 to 300 nM.
`CCOC(=O)c1ccccc1-c1ccc(-n2ccc(C)n2)c([C@@H](Oc2cc(N3CCC4(CC3)CN[C@H](C(=O)O)C4)nc(N)n2)C(F)(F)F)c1` [Example 20, (S)-8-(2-amino-6-((R)-1-(2′-(ethoxycarbonyl)-4-(3-methyl-1H-pyrazol-1-yl)-[1,1′-biphenyl]-3-yl)-2,2,2-trifluoroethoxy)pyrimidin-4-yl)-2,8-diazaspiro[4.5]decane-3-carboxylic acid] was tested, and the IC50 was under 50 nM.
Compound `Cc1ccn(-c2cc(-c3cnoc3)ccc2[C@@H](Oc2cc(N3CCC4(CC3)CN[C@H](C(=O)O)C4)nc(N)n2)C(F)(F)F)n1` [Example 1i, (S)-8-(2-amino-6-((R)-2,2,2-trifluoro-1-(4-(isoxazol-4-yl)-2-(3-methyl-1H-pyrazol-1-yl)phenyl)ethoxy)pyrimidin-4-yl)-2,8-diazaspiro[4.5]decane-3-carboxylic acid] has an IC50 of 50 to 300 nM.
`CCN(CC)C(=O)c1ccc(-c2ccc([C@@H](Oc3cc(N4CCC5(CC4)CN[C@H](C(=O)O)C5)nc(N)n3)C(F)(F)F)cc2)cc1` [Example 55de, (S)-8-(2-amino-6-((R)-1-(4′-(diethylcarbamoyl)-[1,1′-biphenyl]-4-yl)-2,2,2-trifluoroethoxy)pyrimidin-4-yl)-2,8-diazaspiro[4.5]decane-3-carboxylic acid] was tested, and the IC50 was 50 to 300 nM.
Compound `Nc1nc(O[C@H](c2ccc(-c3ccc4ncnn4c3)cc2)C(F)(F)F)cc(N2CCC3(CC2)CN[C@H](C(=O)O)C3)n1` [Example 55l, (S)-8-(6-((R)-1-(4-([1,2,4]triazolo[1,5-a]pyridin-6-yl)phenyl)-2,2,2-trifluoroethoxy)-2-aminopyrimidin-4-yl)-2,8-diazaspiro[4.5]decane-3-carboxylic acid] has an IC50 of 50 to 300 nM.
With `CCOc1ccc(-c2ccc([C@@H](Oc3cc(N4CCC5(CC4)CN[C@H](C(=O)O)C5)nc(N)n3)C(F)(F)F)c(-n3ccc(C)n3)c2)cc1Cl` [Example 1al, (S)-8-(2-amino-6-((R)-1-(3′-chloro-4′-ethoxy-3-(3-methyl-1H-pyrazol-1-yl)-[1,1′-biphenyl]-4-yl)-2,2,2-trifluoroethoxy)pyrimidin-4-yl)-2,8-diazaspiro[4.5]decane-3-carboxylic acid] the IC50 was under 50 nM.
Work on `Cc1ccn(-c2cc(-c3ccc(C)c(CO)c3)ccc2[C@@H](Oc2cc(N3CCC4(CC3)CN[C@H](C(=O)O)C4)nc(N)n2)C(F)(F)F)n1` [Example 1cq, (S)-8-(2-amino-6-((R)-2,2,2-trifluoro-1-(3′-(hydroxymethyl)-4′-methyl-3-(3-methyl-1H-pyrazol-1-yl)-[1,1′-biphenyl]-4-yl)ethoxy)pyrimidin-4-yl)-2,8-diazaspiro[4.5]decane-3-carboxylic acid] yielded an IC50 of under 50 nM.
For `NC(=O)c1ccc(-c2ccc([C@@H](Oc3cc(N4CCC5(CC4)CN[C@H](C(=O)O)C5)nc(N)n3)C(F)(F)F)cc2)cc1` [Example 55df, (S)-8-(2-amino-6-((R)-1-(4′-carbamoyl-[1,1′-biphenyl]-4-yl)-2,2,2-trifluoroethoxy)pyrimidin-4-yl)-2,8-diazaspiro[4.5]decane-3-carboxylic acid], the IC50 was 50 to 300 nM.
